Laboratory results reported in patent US20250360145A1, “CSF-1R INHIBITORS AND USES THEREOF” (Myrobalan Therapeutics, Inc., priority 2022, published 2025).
Like-named read-outs stand apart in the source and are kept apart here.

Key:
EOC2 cell = assay: Cell proliferation assay, EOC2; format: cell-based, mouse; conditions: EOC2 cells, 72 hours treatment, read-out: ECO2 EC50
[1] = system: Ba/F3_CSF-1R (stably expressing human CSF-1R kinase); assay: Cell proliferation assay, Ba/F3_CSF-1R; format: cell-based; conditions: Ba/F3_CSF-1R cells, 72 hours treatment, read-out: CSF-1R BaF3 EC50
CSF-1R = CSF-1R (Homo sapiens (Human), UniProt P07333); assay: Biochemical HTRF kinase assay, CSF-1R; conditions: recombinant human CSF-1R;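 also: enzyme incubated with inhibitor plus a substrate and ATP mix for one hour at room temperature before HTRF detection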
PDGFRβ = PDGFRβ (Homo sapiens (Human), UniProt P09619); assay: Biochemical HTRF kinase assay, PDGFRβ; conditions: for IC50: recombinant human protein, read-out: PDGFR-1β IC50; for PDGFR-1β Fold: selectivity: IC50 of PDGFR-1β as multiple of IC50 of CSF-1R;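 as to all read-outs here: kinase reaction with substrate/ATP mix run 1 h at room temperature in 384-well format, HTRF signal detection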
c-Kit = c-Kit (Homo sapiens (Human), UniProt P10721); assay: Biochemical HTRF kinase assay, c-Kit; conditions: for IC50: recombinant human protein, read-out: cKit IC50; for cKit Fold: selectivity: IC50 of cKit as multiple of IC50 of CSF-1R;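 as to all read-outs here: enzyme reaction with substrate and ATP run in 384-well plates for 1 hour at room temperature, kinase activity detected by HTRF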
FLT3 = FLT3 (Homo sapiens (Human), UniProt P36888); assay: Biochemical HTRF kinase assay, FLT3; conditions: for IC50: recombinant human protein; for FLT3 Fold: selectivity: IC50 of FLT3 as multiple of IC50 of CSF-1R
Sequence of FLT3 (P36888 27-993): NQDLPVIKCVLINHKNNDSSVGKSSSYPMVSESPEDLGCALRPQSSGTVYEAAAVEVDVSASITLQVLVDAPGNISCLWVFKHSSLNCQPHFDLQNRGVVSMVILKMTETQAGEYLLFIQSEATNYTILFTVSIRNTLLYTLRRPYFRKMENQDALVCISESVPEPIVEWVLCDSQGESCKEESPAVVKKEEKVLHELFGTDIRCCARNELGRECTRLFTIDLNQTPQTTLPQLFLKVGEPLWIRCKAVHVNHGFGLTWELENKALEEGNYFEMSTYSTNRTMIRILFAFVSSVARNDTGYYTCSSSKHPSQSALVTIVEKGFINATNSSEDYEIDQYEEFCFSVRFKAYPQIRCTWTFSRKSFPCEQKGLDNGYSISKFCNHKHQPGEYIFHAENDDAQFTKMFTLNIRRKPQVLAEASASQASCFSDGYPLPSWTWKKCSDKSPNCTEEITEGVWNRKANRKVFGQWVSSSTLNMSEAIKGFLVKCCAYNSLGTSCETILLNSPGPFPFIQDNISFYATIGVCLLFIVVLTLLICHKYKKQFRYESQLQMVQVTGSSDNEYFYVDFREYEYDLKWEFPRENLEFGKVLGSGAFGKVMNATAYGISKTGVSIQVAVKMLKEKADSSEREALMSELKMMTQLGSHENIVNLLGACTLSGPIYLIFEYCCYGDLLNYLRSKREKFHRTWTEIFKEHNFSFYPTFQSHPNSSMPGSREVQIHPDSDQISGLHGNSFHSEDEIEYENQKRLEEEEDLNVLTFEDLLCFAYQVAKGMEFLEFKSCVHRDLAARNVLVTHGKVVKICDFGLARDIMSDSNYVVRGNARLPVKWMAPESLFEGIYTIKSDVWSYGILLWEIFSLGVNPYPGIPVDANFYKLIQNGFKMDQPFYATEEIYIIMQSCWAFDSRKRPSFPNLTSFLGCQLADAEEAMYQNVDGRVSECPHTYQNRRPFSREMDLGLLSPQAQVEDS

Sequence of PDGFRβ (P09619 33-1106): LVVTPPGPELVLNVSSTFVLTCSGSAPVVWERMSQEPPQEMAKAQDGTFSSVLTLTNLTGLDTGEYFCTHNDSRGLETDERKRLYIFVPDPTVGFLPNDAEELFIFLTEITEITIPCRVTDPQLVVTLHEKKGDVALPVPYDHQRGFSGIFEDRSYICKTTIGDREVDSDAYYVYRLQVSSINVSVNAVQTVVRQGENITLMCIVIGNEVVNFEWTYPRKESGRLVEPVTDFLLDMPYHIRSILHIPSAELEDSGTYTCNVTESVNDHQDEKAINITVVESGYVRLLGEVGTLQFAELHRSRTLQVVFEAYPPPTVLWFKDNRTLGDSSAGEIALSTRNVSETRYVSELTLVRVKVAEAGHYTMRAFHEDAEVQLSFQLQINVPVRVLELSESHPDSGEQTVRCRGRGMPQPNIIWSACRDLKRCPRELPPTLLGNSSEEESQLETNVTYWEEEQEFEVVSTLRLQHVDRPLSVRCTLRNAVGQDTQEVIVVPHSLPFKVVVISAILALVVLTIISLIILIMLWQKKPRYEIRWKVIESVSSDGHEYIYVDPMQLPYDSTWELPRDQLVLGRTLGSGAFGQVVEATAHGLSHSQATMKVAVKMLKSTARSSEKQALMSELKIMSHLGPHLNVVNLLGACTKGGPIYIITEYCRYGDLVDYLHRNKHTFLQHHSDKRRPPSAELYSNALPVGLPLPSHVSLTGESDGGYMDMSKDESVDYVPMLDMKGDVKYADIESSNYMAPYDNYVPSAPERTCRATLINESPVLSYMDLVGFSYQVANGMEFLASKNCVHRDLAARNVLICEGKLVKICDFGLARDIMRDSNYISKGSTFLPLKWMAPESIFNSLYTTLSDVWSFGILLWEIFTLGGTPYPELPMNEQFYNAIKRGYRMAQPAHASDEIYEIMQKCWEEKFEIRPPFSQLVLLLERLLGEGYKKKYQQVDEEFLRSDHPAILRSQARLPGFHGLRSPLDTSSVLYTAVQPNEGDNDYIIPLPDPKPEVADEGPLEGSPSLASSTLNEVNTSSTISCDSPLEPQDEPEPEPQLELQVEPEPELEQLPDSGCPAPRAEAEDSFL
Sequence of CSF-1R (P07333 20-972): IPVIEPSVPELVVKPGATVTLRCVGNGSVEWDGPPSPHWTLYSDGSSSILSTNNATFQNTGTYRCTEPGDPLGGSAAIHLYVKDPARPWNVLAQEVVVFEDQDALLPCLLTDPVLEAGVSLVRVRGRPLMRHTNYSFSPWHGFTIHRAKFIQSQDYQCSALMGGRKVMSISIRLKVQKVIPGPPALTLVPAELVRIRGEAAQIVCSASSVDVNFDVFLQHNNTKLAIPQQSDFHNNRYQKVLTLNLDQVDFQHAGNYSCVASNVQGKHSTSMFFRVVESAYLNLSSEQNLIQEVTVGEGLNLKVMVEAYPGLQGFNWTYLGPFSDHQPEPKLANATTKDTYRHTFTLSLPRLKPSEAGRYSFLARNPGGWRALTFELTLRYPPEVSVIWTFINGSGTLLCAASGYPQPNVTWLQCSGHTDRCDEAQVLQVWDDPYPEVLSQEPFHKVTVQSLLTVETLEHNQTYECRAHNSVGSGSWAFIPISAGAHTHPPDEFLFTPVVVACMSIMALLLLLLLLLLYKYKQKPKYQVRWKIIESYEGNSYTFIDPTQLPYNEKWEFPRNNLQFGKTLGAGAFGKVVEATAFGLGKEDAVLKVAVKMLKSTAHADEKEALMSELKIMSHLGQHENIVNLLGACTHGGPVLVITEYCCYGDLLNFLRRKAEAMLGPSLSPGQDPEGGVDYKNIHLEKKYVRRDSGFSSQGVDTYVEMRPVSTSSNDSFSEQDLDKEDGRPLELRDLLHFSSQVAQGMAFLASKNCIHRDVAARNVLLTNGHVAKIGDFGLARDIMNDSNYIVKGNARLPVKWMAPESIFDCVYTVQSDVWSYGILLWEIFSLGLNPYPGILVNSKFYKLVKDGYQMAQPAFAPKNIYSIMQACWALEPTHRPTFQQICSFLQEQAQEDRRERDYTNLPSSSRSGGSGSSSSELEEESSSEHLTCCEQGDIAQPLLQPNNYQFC
Sequence of c-Kit (P10721 26-976): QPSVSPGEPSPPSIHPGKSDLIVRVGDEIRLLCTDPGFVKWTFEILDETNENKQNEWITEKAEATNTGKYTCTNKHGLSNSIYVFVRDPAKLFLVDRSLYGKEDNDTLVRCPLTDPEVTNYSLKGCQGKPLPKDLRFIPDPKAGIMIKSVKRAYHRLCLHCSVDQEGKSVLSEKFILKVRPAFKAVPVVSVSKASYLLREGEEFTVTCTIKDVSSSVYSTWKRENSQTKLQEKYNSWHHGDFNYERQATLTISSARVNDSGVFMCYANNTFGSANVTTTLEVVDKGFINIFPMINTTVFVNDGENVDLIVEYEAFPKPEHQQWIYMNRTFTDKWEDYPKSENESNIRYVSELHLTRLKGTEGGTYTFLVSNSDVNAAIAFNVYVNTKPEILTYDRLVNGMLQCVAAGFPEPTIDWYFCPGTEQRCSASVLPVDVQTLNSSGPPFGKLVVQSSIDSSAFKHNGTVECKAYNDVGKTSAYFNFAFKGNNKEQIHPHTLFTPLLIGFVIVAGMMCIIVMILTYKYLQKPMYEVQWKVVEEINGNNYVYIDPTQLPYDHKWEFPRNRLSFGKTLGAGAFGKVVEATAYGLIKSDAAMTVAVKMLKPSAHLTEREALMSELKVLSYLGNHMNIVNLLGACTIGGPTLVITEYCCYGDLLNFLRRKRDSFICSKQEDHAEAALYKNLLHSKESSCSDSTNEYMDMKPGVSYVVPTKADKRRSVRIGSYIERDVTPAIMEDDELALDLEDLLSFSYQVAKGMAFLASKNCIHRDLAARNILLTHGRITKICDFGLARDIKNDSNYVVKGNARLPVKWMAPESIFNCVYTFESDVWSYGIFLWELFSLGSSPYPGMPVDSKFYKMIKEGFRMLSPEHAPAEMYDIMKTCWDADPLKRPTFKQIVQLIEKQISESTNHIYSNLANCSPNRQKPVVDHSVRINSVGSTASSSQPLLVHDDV

Row | SMILES | EC50 (EOC2 cell; Mus musculus, 72 h) [nM] | EC50 ([1]; BaF3, 72 h) [nM] | IC50 (CSF-1R; Table 2) [nM] | IC50 (CSF-1R; Table 3) [nM] | IC50 (PDGFRβ) [nM] | PDGFR-1β Fold (PDGFRβ) [fold] | IC50 (c-Kit) [nM] | cKit Fold (c-Kit) [fold] | IC50 (FLT3) [nM] | FLT3 Fold (FLT3) [fold] | EC50 (EOC2 cell) [nM] | EC50 [1] [nM]
1 | COc1cnc2c(Cc3cnc(OCc4cc(C)n(C5COC5)n4)c(OC)c3)ccnc2c1 [Example 88] | 116 | 76.7 | 4.9 | 4.9 | > 1000 | >100 | > 1000 | >100 | > 1000 | >100 | – | –
2 | COc1cnc2c(Cc3cnc(OCc4cnc5c(c4)OCCN5C)c(OC)c3)ccnc2c1 [Example 87] | 92 | 86.3 | 0.83 | 0.83 | 208 | >100 | > 1000 | >100 | > 1000 | >100 | – | –
3 | [2H]C([2H])([2H])Oc1cc(Cc2ccnc3cc(OC)cnc23)cnc1OCc1ccc(OC)cn1 [Example 74] | 33.3 | 100 | 3.3 | 3.3 | > 1000 | >100 | > 1000 | >100 | > 1000 | >100 | – | –
4 | COc1cnc2c(Cc3cnc(OCc4ccc([C@H]5CC5(F)F)cn4)c(OC)c3)ccnc2c1 (stereo in doubt) [Example 80] | – | 50.7 | 4 | 4 | 49 | 12.3 | 214 | 53.4 | > 1000 | >100 | 29.8 | –
5 | COc1cnc2c(Cc3cnc(OCc4cc5n(n4)C[C@H](F)C5)c(OC)c3)ccnc2c1 [Example 112] | 102 | 168 | 4.7 | 4.7 | 874 | >100 | > 1000 | >100 | > 1000 | >100 | – | –
6 | [2H]C([2H])([2H])Oc1ccc(COc2ncc(Cc3ccnc4cc(OC)cnc34)cc2OC)nc1 [Example 78] | 48.4 | 143 | 6.7 | 6.7 | 947 | >100 | > 1000 | >100 | > 1000 | >100 | – | –
7 | COc1cnc2c(Cc3cnc(OCc4ccc([C@H]5CC5(F)F)cn4)c(OC)c3)ccnc2c1 (stereo in doubt) [Example 81] | – | – | 5.1 | 5.1 | 371 | 72.7 | > 1000 | >100 | > 1000 | >100 | 60.9 | 25.8
8 | COc1cnc2c(Cc3cnc(OCc4cc(C(C)C)no4)c(OC)c3)ccnc2c1 [Example 83] | 37 | 26.7 | 1.2 | 1.2 | 158 | >100 | > 1000 | >100 | > 1000 | >100 | – | –
9 | COc1cnc2c(Cc3cnc(OCc4ccc(C5CC5(F)F)cn4)c(OC)c3)ccnc2c1 (stereo not drawn) [Example 66] | 62.7 | 89.1 | 3 | 3 | 73.6 | 24.5 | 948 | >100 | > 1000 | >100 | – | –
10 | [2H]C([2H])([2H])Oc1cnc2c(Cc3cnc(OCc4ccc(OC)cn4)c(OC)c3)ccnc2c1 [Example 79] | 60.4 | 118 | 3.6 | 3.6 | 684 | >100 | > 1000 | >100 | > 1000 | >100 | – | –
11 | COc1ccc(COc2ncc(Cc3ccnc4cccnc34)cc2OC)nc1 [Example 15, 4-((5-methoxy-6-((5-methoxypyridin-2-yl)methoxy)pyridin-3-yl)methyl)-1,5-naphthyridine] | 253 | 437 | 9.8 | 9.8 | > 1000 | >100 | > 1000 | >100 | > 1000 | >100 | – | –
12 | COc1cnc2c(Cc3cnc(OCc4cc5n(n4)CC4CC54)c(OC)c3)ccnc2c1 (stereo not drawn) [Example 101] | 48.3 | 77.7 | 1.9 | 1.9 | 839 | >100 | 715 | >100 | > 1000 | >100 | – | –
13 | COc1cnc2c(Cc3cnc(OCc4cccc(N(C)C(C)=O)n4)c(OC)c3)ccnc2c1 [Example 123] | 77 | 128 | 52.5 | – | – | – | – | – | – | – | – | –
14 | COc1cnc2c(Cc3ccn4nc(C5CCOCC5)cc4c3)ccnc2c1 [Example 158, 3-methoxy-8-((2-(tetrahydro-2H-pyran-4-yl)pyrazolo[1,5-a]pyridin-5-yl)methyl)-1,5-naphthyridine] | > 1000 | > 1000 | > 1000 | – | – | – | – | – | – | – | – | –
15 | COc1ccc(COc2ncc(Cc3ccnc4cc(C#N)cnc34)cc2OC)nc1 [Example 65, 8-((5-methoxy-6-((5-methoxypyridin-2-yl)methoxy)pyridin-3-yl)methyl)-1,5-naphthyridine-3-carbonitrile] | > 1000 | 787 | 26.9 | – | – | – | – | – | – | – | – | –
16 | COc1cnc2c(Cc3cnc(OCc4ccn(C)n4)c(OC)c3)ccnc2c1 [Example 48] | 296 | 586 | 8.2 | – | – | – | – | – | – | – | – | –
17 | COc1cnc2c(Cc3cnc(OCc4ccc5ccnn5c4)c(OC)c3)ccnc2c1 [Example 148] | 49.8 | 37.3 | 6.3 | – | – | – | – | – | – | – | – | –
18 | COc1cnc2c(Cc3cnc(OCc4cccc(C(=O)N(C)C)n4)c(OC)c3)ccnc2c1 [Example 117] | 170 | 344 | 21.1 | – | – | – | – | – | – | – | – | –
19 | COc1cnc2c(Cc3cnc(OCc4cc5n(n4)CC4(CC4)C5)c(OC)c3)ccnc2c1 [Example 108] | 23.7 | 37.6 | 1.9 | – | – | – | – | – | – | – | – | –
20 | COc1cnc2c(Cc3cnc(OCc4cc5cnccn5n4)c(OC)c3)ccnc2c1 [Example 145] | 178 | 229 | 39.1 | – | – | – | – | – | – | – | – | –
21 | COc1cnc2c(Cc3cnc(OCc4cc5n(n4)CCCOC5)c(OC)c3)ccnc2c1 [Example 107] | 37.1 | 65.9 | 1.6 | – | – | – | – | – | – | – | – | –
22 | COc1ccc2c(Cc3ccc(OCc4cc(C)on4)c(OC)c3)ccnc2c1 [Example 36] | 486 | 637 | 39.8 | – | – | – | – | – | – | – | – | –
23 | COc1cnc2c(Cc3cc(OC)c4nc(N5CCC(OC)CC5)ncc4c3)ccnc2c1 [Example 150] | > 1000 | > 1000 | 947 | – | – | – | – | – | – | – | – | –
